According to patent publication US12263248B2, “Compounds and compositions for intracellular delivery of therapeutic agents” (ModernaTX, Inc., priority 2018, dated 2025):

Experiments:
luciferase (Luc) mRNA [1] = assay: Luc expression, whole body bioluminescence after intravenous administration to mice; format: in vivo; conditions: for Fold increase in total body Luc Flux relative to MC3 at 6 h: Table 3A; for Total Flux 3 hours / Total Flux 6 hours / Total Flux 24 hours: mice, i.v., 0.5 mg/kg, Luc mRNA; for 6 h Lipid/MC3 Avg. Luc Expression / Fold increase AUC Lipid/MC3 / AUC (h * p/s): Table 3C; for AUC (h * p/s) / AUC (p/s * h): Luc; for Lipid/MC3 AUC / AUC (p/s * h): Table 3D, intravenous
Summary of the method: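 Bioluminescence, read as region-of-interest total flux at 3, 6 and 24 h, followed a single 0.5 mg/kg intravenous dose of Luc mRNA-loaded nanoparticles in mice (n=6). Luciferin substrate (200 μL, 15 mg/mL in PBS) was injected intraperitoneally into CD-1 mice 15 minutes ahead of each imaging point.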

[2] = Encapsulation efficiency of RNA (QUANT-IT RIBOGREEN RNA assay); format: physicochemical; conditions: Table 1A
Summary of the method: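 RiboGreen fluorescence (ex ~480, em ~520 nm) compared between intact samples and Triton X-100-lysed samples after 15 min at 37 °C in TE buffer, pH 7.5. Percent free RNA is the blank-corrected intact/disrupted ratio.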

[3] = Apparent (surface) pKa of the LNP formulation (TNS assay); format: physicochemical; conditions: Table 1A
Description: Using sodium hydroxide (1 M) and hydrochloric acid (1 M), 21 unique buffers were prepared from the master buffer stock at pH values between about 3 and 12. Next, a stock of 300 μM 6-(p-Toluidino)-2-naphthalenesulfonic acid sodium salt (TNS reagent) in DMSO was prepared and the LNP was mixed with the desired formulation buffer at a concentration of 0.04 mg/mL mRNA. This assay has been validated in 1× PBS and 20 mM Tris w/8% sucrose buffer. The buffer solutions at various pH values were added to a 96-well plate in triplicate for each pH. To each well was added 3.26 μL of LNP sample at a mRNA concentration of 0.04 mg/mL and 2.0 μL of 300 μM TNS reagent solution. After careful mixing, the resulting fluorescence values were read for each plate to create a sigmoidal plot of the fluorescence values vs. buffer pH. The […] inflection point of this curve is the apparent pKa of the LNP formulation.

[4] = Particle size and polydispersity index of nanoparticle compositions (Zetasizer Nano ZS); format: physicochemical; conditions: Table 1A; for Size (nm): lipid:DSPC:cholesterol:PEG-DMG 50:10:38.5:1.5 mol %
Summary of the method: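 Measured in 1×PBS by Zetasizer Nano ZS.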

luciferase (Luc) mRNA [5] = assay: Luc expression in liver, lung, spleen and femur 6 hours after intravenous administration; format: in vivo; conditions: mice, intravenous, 0.5 mpk
Summary of the method: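 LNP-formulated mRNA given IV to mice (n=3) at 0.5 mpk; at 6 h, bioluminescence imaged ex vivo 15 min after IP D-luciferin (15 mg/mL, 200 μL), organs imaged within 25 min. Values are total flux by region of interest.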

Row | SMILES | EE (%) [2] | pKa [3] | PDI [4] | Size (nm) [4] | Fold increase in total body Luc Flux relative to MC3 at 6 h (luciferase (Luc) mRNA [1]; i.v. administration) | flux measured at 6 h relative to the MC3 formulation (luciferase (Luc) mRNA [1]; i.v. administration, in words) | Total Flux 3 hours (luciferase (Luc) mRNA [1]) | Total Flux 6 hours (luciferase (Luc) mRNA [1]) | Total Flux 24 hours (luciferase (Luc) mRNA [1]) | Total Flux Liver (luciferase (Luc) mRNA [5]) | Total Flux Lung (luciferase (Luc) mRNA [5]) | Total Flux Spleen (luciferase (Luc) mRNA [5]) | 6 h Lipid/MC3 Avg. Luc Expression (luciferase (Luc) mRNA [1]; i.v. administration) | Fold increase AUC Lipid/MC3 (luciferase (Luc) mRNA [1]; i.v. administration) | AUC (h * p/s) (luciferase (Luc) mRNA [1]; i.v. administration) | Lipid/MC3 AUC (luciferase (Luc) mRNA [1]) | AUC (p/s * h) (luciferase (Luc) mRNA [1])
1 | CCCCCCCCC(CCCCCCCC)OC(=O)CCCCCCCN(CCO)CCCC(=O)OCCCCCCC [Compound 54, heptadecan-9-yl 8-((4-(heptyloxy)-4-oxobutyl)(2-hydroxyethyl)amino) octanoate] | 96.71% | 6.51 | 0.19 | 112.9 nm | 3.80 | higher flux than MC3 formulations | 5.36E+10 | 4.18E+10 | 9.07E+08 | 5.57E+09 | 1.12E+07 | 1.64E+08 |  |  |  |  | 
2 | CCCCCCCCCOC(=O)CCCCCCCN(CCO)CCCCCCCOP(=O)(OCCCCCCCC)OCCCCCCCC [Compound 131, Nonyl 8-((7-((bis(octyloxy)phosphoryl)oxy)heptyl)(2-hydroxyethyl)amino)octanoate] | 75.44% | 7.76 | 0.095 | 167.9 nm |  |  | 6.97E+09 | 7.64E+09 | 2.47E+08 | 3.52E+08 | 1.45E+07 | 8.32E+08 | 1.05 | 1.13 | 9.29E+10 h * p/s |  | 
3 | CCCCCCCCC(CCCCCCCC)OC(=O)CCCCCCCN(CCO)CCCCCCCC(=O)OC(C)(C)C [Compound 155, tert-Butyl 8-((8-(heptadecan-9-yloxy)-8-oxooctyl)(2-hydroxyethyl)amino)octanoate] | 37.36% | 6.576 | 0.240 | 208.3 nm |  |  | 2.49E+09 | 1.15E+10 | 1.99E+08 | 8.58E+08 | 1.00E+07 | 2.77E+08 |  |  |  | 0.66 | 1.266E+011 p/s * h

Further lines, with some results ahead:

Row | EE (%) [2] | pKa [3] | PDI [4] | Size (nm) [4] | SMILES | Fold increase in total body Luc Flux relative to MC3 at 6 h (luciferase (Luc) mRNA [1]; i.v. administration) | flux measured at 6 h relative to the MC3 formulation (luciferase (Luc) mRNA [1]; i.v. administration, in words) | Total Flux 3 hours (luciferase (Luc) mRNA [1]) | Total Flux 6 hours (luciferase (Luc) mRNA [1]) | Total Flux 24 hours (luciferase (Luc) mRNA [1]) | Total Flux Liver (luciferase (Luc) mRNA [5]) | Total Flux Lung (luciferase (Luc) mRNA [5]) | Total Flux Spleen (luciferase (Luc) mRNA [5]) | 6 h Lipid/MC3 Avg. Luc Expression (luciferase (Luc) mRNA [1]; i.v. administration) | Fold increase AUC Lipid/MC3 (luciferase (Luc) mRNA [1]; i.v. administration) | AUC (h * p/s) (luciferase (Luc) mRNA [1]; i.v. administration) | Lipid/MC3 AUC (luciferase (Luc) mRNA [1]) | AUC (p/s * h) (luciferase (Luc) mRNA [1])
4 | 89.15% | 7.25 | 0.140 | 176.5 nm | CCCCCCCCC(CCCCCCCC)OC(=O)CCCCCCCN(CCO)CCCCCCCC(=O)N(C)CCCCCCCC [Compound 145, Heptadecan-9-yl 8-((2-hydroxyethyl)(8-(methyl(octyl)amino)-8-oxooctyl)amino)octanoate] |  |  | 7.11E+09 | 6.50E+09 | 2.38E+08 | 5.01E+08 | 1.36E+07 | 4.25E+08 | 0.89 | 0.983 | 8.1E+10 h * p/s |  | 
5 | 98.00% | 6.284 | 0.110 | 62.1 nm | CCCCCCCCC(CCCCCCCC)OC(=O)CCCCCCCN(C)CCCCCCCCCC(=O)OCCCCCCC [Compound 149, Heptyl 10-((8-(heptadecan-9-yloxy)-8-oxooctyl)(methyl)amino)decanoate] |  |  | 1.01E+10 | 8.33E+09 | 3.45E+08 | 1.11E+09 | 2.69E+06 | 2.71E+07 |  |  |  | 0.55 | 1.057E+011 p/s * h
6 | 89.5% | 6.98 | 0.19 | 110.4 nm | CCCCCCCCCOC(=O)CCCCCCCN(CCO)CCCCCCCCCOP(=O)(OCCCCCCCCC)OCCCCCCCCC [Compound 127, Nonyl 8-((9-((bis(nonyloxy)phosphoryl)oxy)nonyl)(2-hydroxyethyl)amino)octanoate] | 0.094 |  | 3.81E+09 | 2.09E+09 | 4.56E+08 | 1.94E+08 | 5.26E+06 | 3.21E+08 |  |  |  |  | 
